Measurements reported in ChEMBL document CHEMBL2331144, “Synthesis and anticancer activity of analogues of phenstatin, with a phenothiazine A-ring, as a new class of microtubule-targeting agents” (Bioorg Med Chem Lett, 2013).

Assays:
SF-295 = experiment: Growth inhibition of human SF295 cells at 10 uM after 48 hrs by sulforhodamine B assay; type: functional; conditions: SF-295, 48 h, read-out: GI
MDA-MB-231 = experiment: Growth inhibition of human MDA-MB-231 cells at 10 uM after 48 hrs by sulforhodamine B assay; type: functional; conditions: MDA-MB-231, 48 h, read-out: GI
NCI-H522 = experiment: Growth inhibition of human NCI-H522 cells at 10 uM after 48 hrs by sulforhodamine B assay; type: functional; conditions: NCI-H522, 48 h, read-out: GI
SK-MEL-5 = experiment: Growth inhibition of human SK-MEL-5 cells at 10 uM after 48 hrs by sulforhodamine B assay; type: functional; conditions: SK-MEL-5, 48 h, read-out: GI
HL-60(TB) = experiment: Growth inhibition of human HL-60(TB) cells at 10 uM after 48 hrs by sulforhodamine B assay; type: functional; conditions: HL-60, 48 h, read-out: GI
RPMI-8226 = experiment: Growth inhibition of human RPMI8226 cells at 10 uM after 48 hrs by sulforhodamine B assay; type: functional; conditions: RPMI-8226, 48 h, read-out: GI
RXF 393 = experiment: Growth inhibition of human RXF393 cells at 10 uM after 48 hrs by sulforhodamine B assay; type: functional; conditions: RXF 393, 48 h, read-out: GI
K562 = experiment: Growth inhibition of human K562 cells at 10 uM after 48 hrs by sulforhodamine B assay; type: functional; conditions: K562, 48 h, read-out: GI
SNB-75 = experiment: Growth inhibition of human SNB75 cells at 10 uM after 48 hrs by sulforhodamine B assay; type: functional; conditions: SNB-75, 48 h, read-out: GI
HCT-116 = experiment: Growth inhibition of human HCT116 cells at 10 uM after 48 hrs by sulforhodamine B assay; type: functional; conditions: HCT-116, 48 h, read-out: GI
[1] = Growth inhibition of human NCI-ADR-RES cells at 10 uM after 48 hrs by sulforhodamine B assay; type: functional; conditions: read-out: GI
Malme-3M = experiment: Growth inhibition of human MALME-3M cells at 10 uM after 48 hrs by sulforhodamine B assay; type: functional; conditions: read-out: GI
Ovis aries = species on record: Ovis aries; experiment: Inhibition of sheep brain tubulin polymerization at 100 uM using DAPI by fluorimetry
KM12 = experiment: Growth inhibition of human KM12 cells at 10 uM after 48 hrs by sulforhodamine B assay; type: functional; conditions: KM12, 48 h, read-out: GI
UO-31 = experiment: Growth inhibition of human UO31 cells at 10 uM after 48 hrs by sulforhodamine B assay; type: functional; conditions: UO-31, 48 h, read-out: GI
CAKI-1 = experiment: Growth inhibition of human CAKI-1 cells at 10 uM after 48 hrs by sulforhodamine B assay; type: functional; conditions: CAKI-1, 48 h, read-out: GI
HOP-62 = experiment: Growth inhibition of human HOP62 cells at 10 uM after 48 hrs by sulforhodamine B assay; type: functional; conditions: HOP-62, 48 h, read-out: GI
UACC-62 = experiment: Growth inhibition of human UACC62 cells at 10 uM after 48 hrs by sulforhodamine B assay; type: functional; conditions: UACC-62, 48 h, read-out: GI
HCT-15 = experiment: Growth inhibition of human HCT15 cells at 10 uM after 48 hrs by sulforhodamine B assay; type: functional; conditions: HCT-15, 48 h, read-out: GI
COLO 205 = experiment: Growth inhibition of human COLO205 cells at 10 uM after 48 hrs by sulforhodamine B assay; type: functional; conditions: COLO 205, 48 h, read-out: GI
MOLT-4 = experiment: Growth inhibition of human MOLT4 cells at 10 uM after 48 hrs by sulforhodamine B assay; type: functional; conditions: MOLT-4, 48 h, read-out: GI
T47D = experiment: Growth inhibition of human T47D cells at 10 uM after 48 hrs by sulforhodamine B assay; type: functional; conditions: read-out: GI
MDA-MB-468 = experiment: Growth inhibition of human MDA-MB-468 cells at 10 uM after 48 hrs by sulforhodamine B assay; type: functional; conditions: MDA-MB-468, 48 h, read-out: GI
LOX IMVI = experiment: Growth inhibition of human LOXIMVI cells at 10 uM after 48 hrs by sulforhodamine B assay; type: functional; conditions: read-out: GI
OVCAR-4 = experiment: Growth inhibition of human OVCAR4 cells at 10 uM after 48 hrs by sulforhodamine B assay; type: functional; conditions: OVCAR-4, 48 h, read-out: GI
MDA-MB-435 = experiment: Growth inhibition of human MDA-MB-435 cells at 10 uM after 48 hrs by sulforhodamine B assay; type: functional; conditions: MDA-MB-435, 48 h, read-out: GI
PC-3 = experiment: Growth inhibition of human PC3 cells at 10 uM after 48 hrs by sulforhodamine B assay; type: functional; conditions: PC-3, 48 h, read-out: GI
CCRF-CEM = experiment: Growth inhibition of human CCRF-CEM cells at 10 uM after 48 hrs by sulforhodamine B assay; type: functional; conditions: read-out: GI
786-0 = experiment: Growth inhibition of human 786-0 cells at 10 uM after 48 hrs by sulforhodamine B assay; type: functional; conditions: 786-0, 48 h, read-out: GI
HOP-92 = experiment: Growth inhibition of human HOP92 cells at 10 uM after 48 hrs by sulforhodamine B assay; type: functional; conditions: HOP-92, 48 h, read-out: GI
MCF7 = experiment: Growth inhibition of human MCF7 cells at 10 uM after 48 hrs by sulforhodamine B assay; type: functional; conditions: MCF7, 48 h, read-out: GI
A498 = experiment: Growth inhibition of human A498 cells at 10 uM after 48 hrs by sulforhodamine B assay; type: functional; conditions: A498, 48 h, read-out: GI

Row | SMILES | inhibition of growth at 10 µM (SF-295) [%] | inhibition of growth at 10 µM (MDA-MB-231) [%] | inhibition of growth at 10 µM (NCI-H522) [%] | inhibition of growth at 10 µM (SK-MEL-5) [%] | inhibition of growth at 10 µM (HL-60(TB)) [%] | inhibition of growth at 10 µM (RPMI-8226) [%] | inhibition of growth at 10 µM (RXF 393) [%] | inhibition of growth at 10 µM (SNB-75) [%] | inhibition of growth at 10 µM (HCT-116) [%] | inhibition of growth at 10 µM [1] [%] | inhibition of growth at 10 µM (Malme-3M) [%] | inhibition (Ovis aries) [%] | inhibition of growth at 10 µM (KM12) [%] | inhibition of growth at 10 µM (UO-31) [%] | inhibition of growth at 10 µM (CAKI-1) [%] | inhibition of growth at 10 µM (HOP-62) [%] | inhibition of growth at 10 µM (UACC-62) [%] | inhibition of growth at 10 µM (HCT-15) [%] | inhibition of growth at 10 µM (COLO 205) [%] | inhibition of growth at 10 µM (MOLT-4) [%] | also measured
1 | O=C(c1cnc2ccccn12)N1c2ccccc2Sc2ccccc21 | 16 | 7.4 | 6.6 | 14.6 | 38.1 | 36 | 0 | 0 | 17.8 | 12.8 | 2 | 38 | 14 | 0 | 5.9 | 3.4 | 39.3 | 17.3 | 19.1 | 0 | inhibition of growth at 10 µM (K562): 2.3%; inhibition of growth at 10 µM (T47D): 19.2%; inhibition of growth at 10 µM (MDA-MB-468): 7.3%; inhibition of growth at 10 µM (LOX IMVI): 12%; inhibition of growth at 10 µM (OVCAR-4): 0%; inhibition of growth at 10 µM (MDA-MB-435): 6.7%; inhibition of growth at 10 µM (PC-3): 45.1%; inhibition of growth at 10 µM (CCRF-CEM): 3.1%; inhibition of growth at 10 µM (786-0): 5.3%; inhibition of growth at 10 µM (HOP-92): 33.8%; inhibition of growth at 10 µM (MCF7): 4.6%
2 | CCOC(=O)c1cc(C(=O)N2c3ccccc3Sc3ccccc32)n2ccc(N(C)C)cc12 | 22.8 | 7.2 | 26.2 | 23.2 | 6.7 | 0 | 33.3 | 30.1 | 12.1 | 29.4 | 22.7 | 42 | 26.4 | 0 | 23.2 | 29.5 | 27.7 | 18.3 | 0 | 15.3 | inhibition of growth at 10 µM (A498): 4.4%; inhibition of growth at 10 µM (T47D): 14.7%; inhibition of growth at 10 µM (MDA-MB-468): 19.7%; inhibition of growth at 10 µM (LOX IMVI): 20.2%; inhibition of growth at 10 µM (OVCAR-4): 9.5%; inhibition of growth at 10 µM (MDA-MB-435): 74.5%; inhibition of growth at 10 µM (PC-3): 50.7%; inhibition of growth at 10 µM (CCRF-CEM): 27.1%; inhibition of growth at 10 µM (786-0): 0%; inhibition of growth at 10 µM (HOP-92): 18.4%; inhibition of growth at 10 µM (MCF7): 18.5%
